According to patent publication US20250320362A1, “Suspensions and Solutions of Dyes For Colored Coatings” (Northeastern University, priority 2022, published 2025):

Columns and labels:
Assay type in all cases: physicochemical
[1] = xanthommatin solubility in water-based polyurethane; settings: pigment added as suspension in water or solution in MES buffer; Rust-Oleum 6711; judged by absence of solid after centrifugation
Experimental: Evaluation of xanthommatin solubility in water-based polyurethane: Two quantities of solid xanthommatin, corresponding to either 0.2 or 1.6 mg of xanthommatin, were dissolved or dispersed in 0.3 mL of MES buffer (0.1 M, pH 5.5) or deionized water, and added to 0.27 g fractions of water-based polyurethane paint (Rust-Oleum 6711). Pigment-free samples were prepared as controls. After mixing, these samples were centrifuged (15,000 g, 5 minutes), and imaged using a camera (FIG. 1D).

[2] = pH-dependent xanthommatin solubility in water; settings: solid pigment suspended in acidic to alkaline water (pH 2-12), agitation, then centrifugation
Experimental: Evaluation of pH-dependent xanthommatin solubility: Fractions of solid xanthommatin corresponding to 1 mg of starting material were dispersed in 1 mL of filtered water adjusted to pH 2.01, 4.00, 6.00, 7.00, 8.01, 10.01, or 12.00. Samples were mixed by pipetting, centrifuged at 15,000 g for 5 minutes, and imaged with a camera to record the mass of undissolved material (FIG. 1C, top panel). Each sample was then diluted to 1.5 mL with water adjusted to its respective pH, mixed by vortexing, sonicated for 5 minutes, centrifuged at 15,000 g for 5 minutes, and imaged again (FIG. 1C, bottom panel).

[3] = solubility of xanthommatin in carrier liquids (water, MES buffer); settings: oxidized xanthommatin

solubility in water-based polyurethane paint base [1]: fully soluble
solubility in water, acidic conditions ([2]; acidic conditions): sparingly soluble/insoluble
solubility in water, basic conditions ([2]; basic conditions): most soluble
solubility in MES buffer (carrier liquid) ([3]; MES buffer): fully soluble
solubility in water (carrier liquid) ([3]; water): only slightly soluble
SMILES: NC(CC(=O)c1cccc2oc3cc(=O)c4[nH]c(C(=O)O)cc(=O)c4c-3nc12)C(=O)O (centres unmarked) [xanthommatin, 11-(3-amino-3-carboxypropanoyl)-1,5-dioxo-4H-pyrido[3,2-a]phenoxazine-3-carboxylic acid]
